Experimental data taken from PubChem BioAssay (NCI).
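Grown in 96-well plates, cells were treated for 48 hours with each compound at five concentrations. Insufficient inhibition: endpoint recorded as highest concentration tested. Definition used: TGI = concentration required for complete inhibition of growth.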

Columns and labels:
Experiment in all cases: growth of human tumour cells (NCI), 48 h
DU-145 prostate = tested on: DU-145 prostate
HOP-62 NSCLC = tested on: HOP-62 NSCLC
HOP-92 NSCLC = tested on: HOP-92 NSCLC
MDA-MB-231 breast = tested on: MDA-MB-231 breast
NCI-H226 lung = tested on: NCI-H226 lung
NCI/ADR-RES ovarian = tested on: NCI/ADR-RES ovarian
PC-3 prostate = tested on: PC-3 prostate
SW-620 colon = tested on: SW-620 colon
T-47D breast = tested on: T-47D breast
ACHN renal = tested on: ACHN renal

| Compound | TGI (DU-145 prostate) [µM] | TGI (HOP-62 NSCLC) [µM] | TGI (HOP-92 NSCLC) [µM] | TGI (MDA-MB-231 breast) [µM] | TGI (NCI-H226 lung) [µM] | TGI (NCI/ADR-RES ovarian) [µM] | TGI (PC-3 prostate) [µM] | TGI (SW-620 colon) [µM] | TGI (T-47D breast) [µM] | TGI (ACHN renal) [µM] |
| --- | --- | --- | --- | --- | --- | --- | --- | --- | --- | --- |
| CC(C)=NN/C(=N\S(=O)(=O)c1ccc(Oc2cccc(Cl)c2C#N)cc1)Nc1ccc(Cl)cc1 | > 100 | > 100 | > 100 | > 100 | > 100 | > 100 | > 100 | > 100 | > 100 |  |
| COc1cccc(CCN2CCN(CCCc3ccccc3)CC2)c1 | > 100 | > 100 | 64.4 | > 100 | > 100 | > 100 | > 100 | > 100 | > 100 | > 100 |
| NCCCN(CCCN(C(=O)Nc1ccccc1)c1ccccc1)C(=O)Nc1ccccc1 | > 100 | 67.5 | 92 | > 100 | > 100 | > 100 | > 100 | 52.3 | 79.3 | > 100 |
| CSCCC(N)C(=O)NCCNc1ccc(NCCNC(=O)C(N)CCSC)c2c1C(=O)c1ccccc1C2=O (stereo unspecified) | 5.4 | 5.22 | 3.4 | 2.81 | 7.46 | 16.2 | 6.02 | 3.83 | 10.9 | 5.45 |
| NC(=O)c1cccc([N+](=O)[O-])c1 |  | > 100 |  |  | > 100 |  |  | > 100 |  |  |
| CCCCC(=O)c1c(O)nc2sccn2c1=O | > 10 | > 10 |  | > 10 | > 10 | > 10 | > 10 | > 10 | > 10 | > 10 |
| COc1cc2ccc(=O)oc2cc1O |  | 411 | > 522 |  | 283 | 277 |  | > 625 |  |  |
| CCCCOC(=O)C(NC(C(=O)OCCCC)c1cc(C(C)(C)C)c(O)c(C(C)(C)C)c1)c1cc(C(C)(C)C)c(O)c(C(C)(C)C)c1 (stereo unspecified) | > 100 | > 100 | > 100 | > 100 | > 100 | > 100 | > 100 | > 100 | > 100 | > 100 |
| ClCCCc1ccccc1C1=NCCc2ccccc21 | > 100 | > 100 | > 100 | > 100 | > 100 | > 100 | > 100 | > 100 | > 100 | > 100 |
| CC1(C)N/C(=C\C=O)C(C)(C)N1O | > 100 | > 100 | > 100 | > 100 | > 100 | > 100 | > 100 | > 100 |  | > 100 |
| CO/N=C1\CC(NC(=O)CNC(=O)OC(C)(C)C)c2ccsc21 (stereo unspecified) | > 100 | > 100 | > 100 | > 100 | > 100 | > 100 | > 100 | > 100 | > 100 |  |
| COC(OC)[C@@H]1OC[C@H](n2cnc3c(N)ncnc32)[C@H]1O | > 100 | > 100 | > 100 | > 100 | > 100 | > 100 | > 100 | > 100 | > 100 | > 100 |
| Cc1cc(-c2nc3cc(F)ccc3s2)ccc1NC(=O)[C@@H](N)CCCCN | 28.4 | 11 | 30.3 | 10.5 | 18.1 | 37.2 | 21.4 | 6.04 | 17.3 | 19.3 |
| OC1(c2ccccc2)CCN(Cc2c[nH]c3ccccc23)CC1 | > 100 | > 100 | > 100 | > 100 | > 100 | > 100 | > 100 | > 100 | > 100 | > 100 |
| Cc1ccc([S@](=O)c2occc2C=O)cc1 | 33.1 | 35.2 | 7.78 | 24.2 | 38 | > 61 | 10.4 | 3.63 | 7.11 | 28.7 |
| Cc1ccc(/C(O)=C/c2nc3ccccc3sc2=O)c(C)c1 | > 100 | 97.3 | 82.4 | > 100 | > 100 | > 100 | > 100 |  | > 100 | > 100 |
| CC1C(=O)N(c2ccccc2)NC12CCCc1ccccc12 (stereo unspecified) | > 100 | > 100 | > 100 | > 100 | > 100 | > 100 | > 100 | > 100 | > 100 | > 100 |
| COc1ccc(C2=Nc3cc(C)c(C)cc3NC(c3ccccc3)C2)cc1 (stereo unspecified) | > 100 | > 100 | > 100 | > 100 | > 100 | > 100 | > 100 | > 100 | > 100 | > 100 |
| COc1c(O)c(C=O)c2c(O)c(-c3c(C)cc4c(C(C)C)c(OC)c(O)c(C=O)c4c3O)c(C)cc2c1C(C)C |  | 9.18 | 8.31 |  | 9.69 |  |  | 17.7 |  | 8.05 |
| CN(C)c1nc(N)nc(CS)n1 | > 100 | > 100 | > 100 | > 100 | > 100 | > 100 | > 100 | > 100 | > 100 | > 100 |
| O=S(Nc1ccccc1)c1ccc(N2CCOCC2)cc1 (stereo unspecified) | > 100 | > 100 |  | > 100 | > 100 | > 100 |  | > 100 | 58.9 | > 100 |
| CSCSSC | > 100 | > 100 | > 100 | > 100 | > 100 | > 100 | > 100 | > 100 | > 100 | > 100 |
| C[n+]1cccc2c(=O)c3ccccc3oc21 | > 100 | > 100 | > 100 | > 100 | > 100 | > 100 | > 100 | > 100 | > 100 | > 100 |
